Results reported in patent US20040077615A1, “Novel formulations for administering therapeutic lipophilic molecules” (priority 2000, published 2004).

Details: subcutaneous 5 mg in sesame oil vs rectal 15 mg (Diastat); plasma over 8 hours; FIG. 1

## CN1C(=O)CN=C(c2ccccc2)c2cc(Cl)ccc21 [diazepam]
  rise of levels in blood, subcutaneous delivery compared with rectal delivery: rise more quickly than via rectal delivery
